The test concerns the target c-kit WT (Homo sapiens (Human), UniProt P10721). Briefly: Proliferation assay (CellTiter-Blue) on BaF3 Kit WT cell line. In kind it is cell-based. The conditions noted are these: BaF3 Kit WT cell line (murine Ba/F3 expressing Human Kit WT, with murine SCF), 48 hours. The essentials: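 Ba/F3 cells expressing human Kit WT, maintained in RPMI/10% FCS with 250 ng/ml murine SCF, were seeded at 2.10^4 cells/well and exposed to ½ serial dilutions (0–10 μM) for 48 h at 37° C. Viability was measured by CellTiter-Blue fluorescence (544Ex/590Em, 4 h) in triplicate as % of untreated proliferation.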
A general note: Resazurin is reduced to fluorescent resorufin, in cell work by metabolically active cells.
Chain of c-kit WT (P10721 26-976): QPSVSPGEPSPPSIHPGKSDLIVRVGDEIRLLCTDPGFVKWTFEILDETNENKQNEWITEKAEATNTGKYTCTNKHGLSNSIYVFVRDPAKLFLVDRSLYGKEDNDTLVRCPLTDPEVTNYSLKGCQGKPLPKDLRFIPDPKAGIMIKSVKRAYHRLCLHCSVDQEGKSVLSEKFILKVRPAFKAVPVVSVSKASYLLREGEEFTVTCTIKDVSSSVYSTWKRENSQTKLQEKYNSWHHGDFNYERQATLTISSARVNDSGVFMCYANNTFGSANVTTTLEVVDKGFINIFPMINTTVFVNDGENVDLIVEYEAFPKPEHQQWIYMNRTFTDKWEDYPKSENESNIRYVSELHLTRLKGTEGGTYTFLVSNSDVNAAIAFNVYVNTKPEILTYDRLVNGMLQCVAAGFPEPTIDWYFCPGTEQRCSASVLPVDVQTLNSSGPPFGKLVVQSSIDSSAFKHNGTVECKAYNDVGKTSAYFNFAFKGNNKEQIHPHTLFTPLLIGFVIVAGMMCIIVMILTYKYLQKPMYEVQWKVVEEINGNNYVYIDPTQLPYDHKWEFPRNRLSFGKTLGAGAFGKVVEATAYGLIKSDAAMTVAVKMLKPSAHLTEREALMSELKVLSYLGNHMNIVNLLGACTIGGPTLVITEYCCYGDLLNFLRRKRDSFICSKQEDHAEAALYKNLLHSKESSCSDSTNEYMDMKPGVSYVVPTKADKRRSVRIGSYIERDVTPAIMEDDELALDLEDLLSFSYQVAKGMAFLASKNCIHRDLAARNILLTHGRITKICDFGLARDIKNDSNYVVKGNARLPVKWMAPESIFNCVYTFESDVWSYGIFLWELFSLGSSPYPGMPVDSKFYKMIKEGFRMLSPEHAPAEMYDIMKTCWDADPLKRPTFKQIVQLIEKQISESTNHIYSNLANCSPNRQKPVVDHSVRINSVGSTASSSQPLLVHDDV
What is called IC50 is the concentration that gives 50% inhibition. A high value points to lower potency. Consider `Cc1cc2c(cc1Nc1nc(-c3ccc(C#N)cc3)cs1)nc(-c1cccc(C(C)(C)C)c1)n2C` [Compound 144, 4-{2-[2-(3-tert-Butyl-phenyl)-1,6-dimethyl-1H-benzoimidazol-5-ylamino]-thiazol-4-yl}-benzonitrile], for which the IC50 was no more than 1000 nM.

Compound `Cc1cc2c(cc1Nc1nc(-c3cccnc3)cs1)nc(-c1cccc(C(C)(C)C)c1)n2C` [Compound 145, [2-(3-tert-Butyl-phenyl)-1,6-dimethyl-1H-benzoimidazol-5-yl]-(4-pyridin-3-yl-thiazol-2-yl)-amine] had an IC50 of no more than 1000 nM.

Turning to `C#Cc1cccc(-c2nc3cc(Nc4nc(-c5cccnc5)cs4)c(C)cc3n2C)c1` [Compound 146, [2-(3-Ethynyl-phenyl)-1,6-dimethyl-1H-benzoimidazol-5-yl]-(4-pyridin-3-yl-thiazol-2-yl)-amine], the IC50 was no more than 1000 nM.

Take `Cc1cc2c(cc1Nc1nc(-c3ccncc3)cs1)nc(-c1cc(F)cc(C(F)(F)F)c1)n2C` [Compound 147, [2-(3-Fluoro-5-trifluoromethyl-phenyl)-1,6-dimethyl-1H-benzoimidazol-5-yl]-(4-pyridin-4-yl-thiazol-2-yl)-amine]: the IC50 is no more than 1000 nM.

Regarding `Cc1cc2c(cc1Nc1nc(-c3cccnc3)cs1)nc(-c1cc(F)cc(C(F)(F)F)c1)n2C` [Compound 148, [2-(3-Fluoro-5-trifluoromethyl-phenyl)-1,6-dimethyl-1H-benzoimidazol-5-yl]-(4-pyridin-3-yl-thiazol-2-yl)-amine], the IC50 is no more than 1000 nM.

`Cc1cc2[nH]c(-c3cc(F)cc(C(F)(F)F)c3)nc2cc1Nc1nc(-c2ccncc2)cs1` [Compound 149, [2-(3-Fluoro-5-trifluoromethyl-phenyl)-6-methyl-1H-benzoimidazol-5-yl]-(4-pyridin-4-yl-thiazol-2-yl)-amine]: the IC50 was no more than 1000 nM.

Compound `Cc1cc2[nH]c(-c3cccc(C(C)C)c3)nc2cc1Nc1nc(-c2ccncc2)cs1` [Compound 150, [2-(3-Isopropyl-phenyl)-6-methyl-1H-benzoimidazol-5-yl]-(4-pyridin-4-yl-thiazol-2-yl)-amine] had an IC50 of no more than 1000 nM.

`Cc1cc2c(cc1Nc1nc(-c3ccncc3)cs1)nc(-c1cccc(C(C)C)c1)n2C` [Compound 151, [2-(3-Isopropyl-phenyl)-1,6-dimethyl-1H-benzoimidazol-5-yl]-(4-pyridin-4-yl-thiazol-2-yl)-amine] showed an IC50 of no more than 1000 nM.

The compound `Cc1cc2c(cc1Nc1nc(-c3ccncc3)cs1)nc(-c1cccc(C(C)(C)C)c1)n2C` [Compound 152, [2-(3-tert-Butyl-phenyl)-1,6-dimethyl-1H-benzoimidazol-5-yl]-(4-pyridin-4-yl-thiazol-2-yl)-amine] yielded an IC50 of no more than 1000 nM.

Compound `Cc1cc2[nH]c(-c3cccc(C(C)(C)C)c3)nc2cc1Nc1nc(-c2ccncc2)cs1` [Compound 153, [2-(3-tert-Butyl-phenyl)-6-methyl-1H-benzoimidazol-5-yl]-(4-pyridin-4-yl-thiazol-2-yl)-amine] gave an IC50 of no more than 1000 nM.

The compound `Cc1cc2[nH]c(-c3cccc(C(C)(C)C)c3)nc2cc1Nc1nc(-c2ccc(C#N)cc2)cs1` [Compound 154, 4-{2-[2-(3-tert-Butyl-phenyl)-6-methyl-1H-benzoimidazol-5-ylamino]-thiazol-4-yl}-benzonitrile] returned an IC50 of no more than 1000 nM.

Source of the values: US10202370B2, “Benzimidazole derivatives as selective proteine kinase inhibitors” (AB SCIENCE, priority 2013, dated 2019).
